Reference: ChEMBL document CHEMBL1201862, “PubChem BioAssay data set” (2004)
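Five concentrations, 48 hours, 96-well plates. GI50 marks 50% less growth.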 Active and inactive are the calls of the source. Cut-off read from the data, not from the text of the source: active = GI50 up to about 1.1 µM and inactive = higher.

Key:
Assay in all cases: NCI tumour cell line growth inhibition, 48 h
SK-MEL-5 = test system: SK-MEL-5
EKVX = test system: EKVX
CAKI-1 = test system: CAKI-1
HCC 2998 = test system: HCC 2998
SNB-78 = test system: SNB-78
SR = test system: SR
OVCAR-8 = test system: OVCAR-8
KM12 = test system: KM12
DMS-273 = test system: DMS-273
DLD-1 = test system: DLD-1
U-251 = test system: U-251
SF-268 = test system: SF-268
COLO 205 = test system: COLO 205
RPMI-8226 = test system: RPMI-8226
M19-MEL = test system: M19-MEL
M14 = test system: M14
MCF7 = test system: MCF7
MDA-MB-231 = test system: MDA-MB-231
OVCAR-3 = test system: OVCAR-3
DU-145 = test system: DU-145

Compound	GI50 (SK-MEL-5)	GI50 (EKVX)	GI50 (CAKI-1)	GI50 (HCC 2998)	GI50 (SNB-78)	GI50 (SR)	GI50 (OVCAR-8)	GI50 (KM12)	GI50 (DMS-273)	GI50 (DLD-1)	GI50 (U-251)	GI50 (SF-268)	GI50 (COLO 205)	GI50 (RPMI-8226)	GI50 (M19-MEL)	GI50 (M14)	GI50 (MCF7)	GI50 (MDA-MB-231)	GI50 (OVCAR-3)	GI50 (DU-145)
O=C(c1ccccc1)c1ccc2c(c1)N=C(c1ccc(Cl)c(Cl)c1)CC(c1ccc3ccccc3c1)N2 (configuration not stated)	> 100 µM (inactive)	> 100 µM (inactive)	> 100 µM (inactive)	> 100 µM (inactive)	> 100 µM (inactive)	> 100 µM (inactive)	> 100 µM (inactive)	> 100 µM (inactive)	> 100 µM (inactive)	> 100 µM (inactive)	> 100 µM (inactive)	> 100 µM (inactive)	> 100 µM (inactive)	99.8 µM (inactive)	> 100 µM (inactive)	> 100 µM (inactive)	–	–	–	–
COc1nc2ccc(Cl)c(C(O)c3ccccc3)c2nc1OC (configuration not stated)	15.6 µM (inactive)	18.2 µM (inactive)	12.1 µM (inactive)	–	–	6.52 µM (inactive)	29 µM (inactive)	29.9 µM (inactive)	–	–	25.3 µM (inactive)	23.4 µM (inactive)	18.1 µM (inactive)	14.1 µM (inactive)	–	17.2 µM (inactive)	29.7 µM (inactive)	15.4 µM (inactive)	24.1 µM (inactive)	32.3 µM (inactive)
S=C1NN=C2C(=C3CCCC4C5CCCCC5N2C34)N1 (configuration not stated)	82.6 µM (inactive)	–	> 100 µM (inactive)	–	–	83.4 µM (inactive)	> 100 µM (inactive)	> 100 µM (inactive)	–	–	–	> 100 µM (inactive)	33 µM (inactive)	28.4 µM (inactive)	–	> 100 µM (inactive)	44.5 µM (inactive)	–	> 100 µM (inactive)	> 100 µM (inactive)
CCN1CC2(CO)CCC(OC)C34C5CC6C(OC)CC(O)(C5C6OC)C(O)(C(OC)C23)C14 (configuration not stated)	> 211 µM (inactive)	> 59.4 µM (inactive)	> 375 µM (inactive)	> 375 µM (inactive)	> 375 µM (inactive)	–	> 375 µM (inactive)	> 375 µM (inactive)	> 375 µM (inactive)	80.7 µM (inactive)	> 305 µM (inactive)	> 375 µM (inactive)	> 375 µM (inactive)	> 375 µM (inactive)	> 375 µM (inactive)	–	> 375 µM (inactive)	–	> 174 µM (inactive)	–
O=C(O)CCC(NC(=O)c1ccc(Nc2nc3ccc(C(F)(F)F)cc3nc2-c2ccccc2)cc1)C(=O)O (configuration not stated)	> 100 µM (inactive)	> 100 µM (inactive)	> 57.8 µM (inactive)	> 100 µM (inactive)	> 100 µM (inactive)	–	> 100 µM (inactive)	> 100 µM (inactive)	> 100 µM (inactive)	> 100 µM (inactive)	> 83 µM (inactive)	> 100 µM (inactive)	> 100 µM (inactive)	> 100 µM (inactive)	> 100 µM (inactive)	–	> 100 µM (inactive)	–	> 100 µM (inactive)	–
C=CCCC1(C)CCCNC1=S (configuration not stated)	> 100 µM (inactive)	> 100 µM (inactive)	–	> 100 µM (inactive)	–	> 100 µM (inactive)	> 100 µM (inactive)	> 100 µM (inactive)	> 100 µM (inactive)	> 100 µM (inactive)	> 100 µM (inactive)	–	37.7 µM (inactive)	> 100 µM (inactive)	–	> 100 µM (inactive)	–	–	> 100 µM (inactive)	–
c1ccc(Sc2nc(Sc3ccccc3)nc(Sc3ccccc3)n2)cc1	> 100 µM (inactive)	35 µM (inactive)	38.9 µM (inactive)	18.1 µM (inactive)	–	> 100 µM (inactive)	–	13.9 µM (inactive)	–	–	19.4 µM (inactive)	32 µM (inactive)	18.6 µM (inactive)	15.4 µM (inactive)	–	> 100 µM (inactive)	26.5 µM (inactive)	> 100 µM (inactive)	13.3 µM (inactive)	21.1 µM (inactive)
O=CNc1cccc2c3c([nH]c12)CCCCCC3	97.5 µM (inactive)	> 100 µM (inactive)	33 µM (inactive)	> 100 µM (inactive)	> 92 µM (inactive)	–	> 100 µM (inactive)	> 100 µM (inactive)	> 100 µM (inactive)	> 100 µM (inactive)	> 100 µM (inactive)	> 100 µM (inactive)	> 100 µM (inactive)	–	> 100 µM (inactive)	–	> 100 µM (inactive)	–	> 100 µM (inactive)	–
CCC12CCC[C@@]13C=C[C@H](O3)C(C)(C)C2=O (some centres not stated)	> 100 µM (inactive)	> 100 µM (inactive)	> 100 µM (inactive)	> 100 µM (inactive)	> 100 µM (inactive)	> 100 µM (inactive)	> 100 µM (inactive)	–	> 100 µM (inactive)	> 100 µM (inactive)	> 100 µM (inactive)	> 100 µM (inactive)	–	> 100 µM (inactive)	> 100 µM (inactive)	> 100 µM (inactive)	–	–	> 100 µM (inactive)	–
Nc1nc(=O)n(C2OC(CO)C(O)C2O)cc1F (configuration not stated)	–	–	1.65 µM (inactive)	> 100 µM (inactive)	–	–	0.222 µM (active)	> 100 µM (inactive)	4.36 µM (inactive)	> 100 µM (inactive)	3.72 µM (inactive)	2.75 µM (inactive)	79.4 µM (inactive)	> 100 µM (inactive)	0.731 µM (active)	–	3.99 µM (inactive)	–	> 100 µM (inactive)	–
O[C@H]1[C@H](O)[C@@H](O)CN2CC[C@H](O)[C@H]12 [CASTANOSPERMINE]	> 100 µM (inactive)	> 100 µM (inactive)	> 100 µM (inactive)	> 95.5 µM (inactive)	> 100 µM (inactive)	–	> 100 µM (inactive)	> 100 µM (inactive)	> 100 µM (inactive)	> 100 µM (inactive)	> 100 µM (inactive)	> 100 µM (inactive)	> 100 µM (inactive)	> 100 µM (inactive)	32.8 µM (inactive)	–	> 100 µM (inactive)	–	> 100 µM (inactive)	–
COc1ccc(-c2oc3cc(O)cc(O)c3c(=O)c2OC)cc1 [ERMANIN]	16.7 µM (inactive)	51.2 µM (inactive)	24.3 µM (inactive)	26 µM (inactive)	–	19.5 µM (inactive)	44.1 µM (inactive)	–	–	–	18 µM (inactive)	22.1 µM (inactive)	20.7 µM (inactive)	15 µM (inactive)	–	37.2 µM (inactive)	38.5 µM (inactive)	31.8 µM (inactive)	21 µM (inactive)	27.2 µM (inactive)
